In patent US20250345363A1, “ANTIMICROBIAL AND ANTIBIOFILM COMPOSITIONS AND USES THEREOF” (MHCombiotic Inc., priority 2024, published 2025):

Legend:
Assay type in all cases: cell-based
[1] = tested on: bacteria/candida biofilm (samples from Example 1); test: Prevention of biofilm formation, MBIC by crystal violet assay; conditions: 48 hours at 37° C.; averaged results; unit not given
Method: For the prevention of biofilm formation, desired concentrations of metals (loid) and/or PBCs were added to 96 wells, with 1.0×10^6 CFU/ml bacteria/candida added to each well. The plates were then incubated for 48 hours at 37° C. in a microplate shaker incubator at 150 rpm. Afterward, the planktonic cells and spent medium were discarded, and the adhered biomass was rinsed twice with distilled water. Biofilm biomass and minimum biofilm inhibitory concentration (MBIC) were determined using the crystal violet assay. The well with no bacterial biofilm and an OD600 absorption of zero was considered the MBIC. Results from at least three separate biological replicates were averaged.
In the crystal violet assay, the microplates or Calgary biofilm device were rinsed twice with 200 μl of 0.9% saline, then stained with 200 μl of a 0.1% crystal violet solution for 30minutes. Following staining, the microplates and pegs were washed three times with 200 μl of ddH2O to remove excess dye. Biofilm quantification was performed by sonication using a 250HT™ ultrasonic cleaner (VWR International) set at 60 Hz for 10 minutes into 200 μl of 70% ethanol, and absorbance was read at 600 nm using 70% ethanol as the blank.

[2] = tested on: bacteria/fungi samples from Example 1; test: Planktonic susceptibility, MIC and MBC in 96-well microtiter plates; conditions: averaged results
Method: Planktonic Susceptibility. Testing of planktonic susceptibility was conducted using MIC and MBC assessments on bacterial strains using 96-well microtiter plates. To prepare the wells for bacteria, serial dilutions of the antibacterial agents were Carried out along the rows of two microtiter plates. The antibacterials were 2-fold diluted with Mueller-Hinton broth (MHB) in each column, reaching a volume of 75 μL. The 1.0 McFarland standard was diluted 15-fold in MHB, and 75 μL of inoculum was added to the wells treated with antibacterials, resulting in a total volume of 150 μL. The microtiter plates were covered, then shake-incubated overnight at 150 rpm and 37° C. MIC was determined based on visible bacterial growth. In cases of Antibacterial opacity or ambiguous results, streaking of well cultures on Mueller-Hinton agar (MHA), overnight incubation, and subsequent comparison to controls were performed. MBC was determined by transferring 3 u L of culture from all MIC microtiter plate wells to 147 μL of MHB in fresh plates. These plates were shake-incubated overnight at 150 rpm and 37° C., and bacterial growth was visually inspected. Combination Antimicrobial Efficacy Testing. This checkerboard (96-well microtiter plates) included one column just media without bacteria/fungi and MBAs/PBCs (as a negative control), and one column without MBA/PBCs, with media, and bacteria/fungi (as a growth and positive controls control), MBAs and/or PBCs were diluted ½ across the rows (19, 20). For each analysis, the same MIC and MBC/MFC steps indicated above were conducted for surveying the bacteriostatic, bactericidal, and reading synergism effects of MBAs with PBCs combinations.
Samples from Example 1 were tested using combinations of additives as well as additives on their own for measuring bacteriostatic effects, bactericidal effects and biofilm inhibition properties.
Method of bacteriostatic effects, bactericidal effects explained in example 1 using MIC and MBC methods, respectively.

[3] = tested on: 11 different gram-positive and gram-negative bacteria as well as 7 different fungi, in total 18 microbes; test: Combination antimicrobial % efficacy in comparison to silver (MIC, MBC/MFC, MBIC averaged); conditions: molar ratios Zinc 1:Carvacrol 3:Resveratrol 1:THC 0.1:CBD 0.1, averaged over all microbes and MIC, minimum of three biological repeats
Source text: Samples of 11 different gram-positive and gram-negative bacteria as well as 7 different fungi, in total 18 microbes included Pseudomonas aeruginosa ATCC 27853, Pseudomonas aeruginosa PAO1, Klebsiella pneumoniae ATCC 11296, Staphylococcus aureus ATCC 25923, Methicillin resistant S. aureus (MRSA) ATCC 33591, Escherichia coli ATCC 25922,Enterococcus faecium ATCC 19434, Staphylococcus epidermidis ATCC 12228, Enterococcus faecalis ATCC 29212, Proteus mirabilisATCC 35659, Acinetobacter baumannii CDC strain AR Bank #0033, Candida albicans ATCC 90028, Candida glabrata ATCC 2001, Candida parasilosis ATCC 22019, Candida krusei ATCC 14243, Candida tropicalis ATCC 13803, Candida auris ATCC MYA-5002, Aspergillus fumigatusATCC 16404 were used.
Metal (loid)-based antimicrobials (MBAs) including, silver nitrate (AgNO3, Sigma-Aldrich, St Louis, MO, USA Lot #M3259), potassium tellurite (K2TeO3, Sigma-Aldrich, St Louis, MO, USA, Cat #P2358-12C), hydrogen tetrachloroaurate (III) trihydrate (AuCl4.3H2O, Alfa Acsar Tweksbury, MA, USA, Lot #U17G046), zinc oxide nanoparticles, <100 nm (Sigma Aldrich), zinc sulfate (ZnSO4·1H2O), and zinc sulfate (ZnSO4.7H2O) were received from Fisher Scientific (Fair Lawn, NJ, USA, Lot #723689). […]
Planktonic Susceptibility. […] MIC was determined based on visible bacterial growth. […]

microbes = test: Evaluation of zinc sources for antimicrobial properties; conditions: comparison of zinc sources

| Molecule | Biofilm Inhibition (MBIC) [1] | Bactericidal (MBC) ([2]; unit inferred, unit assumed) | Bacteriostatic (MIC) ([2]; unit inferred, unit assumed) | Total antimicrobial efficacy percent over silver alone, including Antibacterial and antibiofilm efficacy (%) [3] | Bactericidal (MBC) ([2]; unit not given) | Antimicrobial effects of zinc source (in words) (microbes) |
| --- | --- | --- | --- | --- | --- | --- |
| OO [H2O2 (3%), hydrogen peroxide] | 0.5 | 0.5 µg/mL | 0.25 µg/mL |  |  |  |
| OO [H2O2 (1.5%), hydrogen peroxide] | 0.5 | 0.5 µg/mL | 0.5 µg/mL |  |  |  |
| Cc1ccc(C(C)C)cc1O [Carvacrol, 5-Isopropyl-2-methylphenol] |  |  |  | 1.3% |  |  |
| benzalkonium chloride [Liquid BZK (0.1%)] | (0.25-0.5) |  | 0.25 µg/mL |  | (0.25-0.5) |  |
| O.O.O.O.O.O.O.O=S(=O)([O-])[O-].[Zn+2] [zinc sulfate heptahydrate] |  |  |  |  |  | comparable to zinc sulfate monohydrate |
| C[N+](C)(C)CC(=O)O [Betaine (0.1%), Betaine] | 1 | 1 µg/mL | 1 µg/mL |  |  |  |
